Measurements: patent publication EP0497314A1, “Use of azapirones in attention deficit hyperactivity disorder” (Bristol-Myers Squibb Company, priority 1991, dated 1992)
Counter-ions that a name gives are not always drawn. Marks after values point to notes of the source that are not given here.

Experiments:
[1] = tested on: fronto-occipital cortex of the cat; experiment: Quantitative EEG, fronto-occipital cat cortex, subcutaneous administration; type: in vivo, cats; conditions: fronto-occipital cat cortex; for mean change ± S.E. in electrical energy from pre-drug control, γ band / group percent change in electrical energy from pre-drug control, γ band: γ= 25-40 Hz; for group percent change in electrical energy from pre-drug control, θ band / mean change ± S.E. in electrical energy from pre-drug control, θ band: θ= 3.5-7.0 Hz
Method in brief: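 Adult female mongrel cats (n=6 per group) with implanted electrodes were recorded while held in restraining bags, with EEG filtered into Δ, ϑ, α, β and γ bands and integrated as energy counts. Drugs were given subcutaneously in saline, with doses calculated as free base, and recording started 30 min post-injection. Changes from each animal's pre-treatment control were tested by paired Student t-test (P≦0.05).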

[2] = tested on: attention deficit hyperactivity disorder; experiment: Treatment of children with attention deficit hyperactivity disorder (Examples 1 and 2); type: in vivo, child
Method: Buspirone is administered to a person, who has been identified by a clinician as having the symptoms associated with attention deficit hyperactivity disorder. During treatment, the child received […] of buspirone twice a day.
Buspirone is administered to a person, who has been identified by a clinician as having the symptoms associated with attention deficit hyperactivity disorder. During the treatment, the child received […] of buspirone three times a day.

rabbit cortex = experiment: Quantitative EEG, rabbit cortex, intravenous administration; type: in vivo, rabbits; conditions: for group percent change in electrical energy from pre-drug control, Δ band / mean change ± S.E. in electrical energy from pre-drug control, Δ band: Δ = 0.5-3.5 Hz; for group percent change in electrical energy from pre-drug control, α band / mean change ± S.E. in electrical energy from pre-drug control, α band: α= 7-13 Hz; for group percent change in electrical energy from pre-drug control, β band / mean change ± S.E. in electrical energy from pre-drug control, β band: β= 13-25 Hz; for group percent change in electrical energy from pre-drug control, γ band / mean change ± S.E. in electrical energy from pre-drug control, γ band: γ= 25-40 Hz; for group percent change in electrical energy from pre-drug control, θ band / mean change ± S.E. in electrical energy from pre-drug control, θ band: θ= 3.5-7.0 Hz
Method in brief: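 Restrained rabbits with cortical leads had EEG split into Δ, ϑ, α, β and γ bands and integrated over 1 h from the moment of i.v. injection, in saline, dosed as free base. Counts were compared with each animal's own pretreatment control by paired t-test (p≦0.05). Doses were reduced geometrically to a no-effect level.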

[3] = child with symptoms of attention deficit hyperactivity disorder, 5 mg/kg twice a day
[4] = rabbit cortex, 0.25 mg/kg free base i.v.
[5] = rabbit cortex, 0.50 mg/kg free base i.v.

O=C1CC2(CCCC2)CC(=O)N1CCCCN1CCN(c2ncccn2)CC1 [Buspirone HCl, buspirone hydrochloride]
mean change ± S.E. in electrical energy from pre-drug control, γ band ([1]; 0.5 mg/kg free base s.c.): -4 ± 4 instrument counts
group percent change in electrical energy from pre-drug control, γ band ([1]; 2.0 mg/kg free base s.c.): -9%
mean change ± S.E. in electrical energy from pre-drug control, γ band ([1]; 2.0 mg/kg free base s.c.): -10 ± 3 instrument counts
group percent change in electrical energy from pre-drug control, γ band ([1]; 8.0 mg/kg free base s.c.): -3%
mean change ± S.E. in electrical energy from pre-drug control, γ band ([1]; 8.0 mg/kg free base s.c.): -2 ± 3 instrument counts
group percent change in electrical energy from pre-drug control, θ band ([1]; 0.125 mg/kg free base s.c.): -22%
mean change ± S.E. in electrical energy from pre-drug control, θ band ([1]; 0.125 mg/kg free base s.c.): -32 ± 16 instrument counts
group percent change in electrical energy from pre-drug control, θ band ([1]; 0.25 mg/kg free base s.c.): -16%
mean change ± S.E. in electrical energy from pre-drug control, θ band ([1]; 0.25 mg/kg free base s.c.): -21 ± 6 instrument counts
group percent change in electrical energy from pre-drug control, θ band ([1]; 0.5 mg/kg free base s.c.): -32%
mean change ± S.E. in electrical energy from pre-drug control, θ band ([1]; 0.5 mg/kg free base s.c.): -46 ± 14 instrument counts
group percent change in electrical energy from pre-drug control, θ band ([1]; 2.0 mg/kg free base s.c.): +13%
mean change ± S.E. in electrical energy from pre-drug control, θ band ([1]; 2.0 mg/kg free base s.c.): +17 ± 15 instrument counts
group percent change in electrical energy from pre-drug control, θ band ([1]; 8.0 mg/kg free base s.c.): +34%
mean change ± S.E. in electrical energy from pre-drug control, θ band ([1]; 8.0 mg/kg free base s.c.): +35 ± 15 instrument counts
clinical response during and after treatment [2, 3]: spectacular and very fast improvement
sleep disturbance [2, 3]: no sleep disturbance
clinical response during and after treatment ([2]; with symptoms of attention deficit hyperactivity disorder, 5 mg/kg three times a day): excellent response
minimal effective dose (rabbit cortex; Oryctolagus cuniculus, iv, rabbit cortex EEG, dose of free base, read-out: the minimum dose required to produce the EEG profile characteristic of that particular drug): 0.5 mg/kg
the no-effect dose (rabbit cortex; rabbit cortex EEG, dose of free base): 0.25† mg/kg, i.v.
EEG profile (rabbit cortex; rabbit cortex, i.v.): shares a component of stimulation similar to that of methylphenidate and dextroamphetamine
group percent change in electrical energy from pre-drug control, Δ band (rabbit cortex; [4]): 0%
mean change ± S.E. in electrical energy from pre-drug control, Δ band (rabbit cortex; [4]): -1 ± 18 instrument counts
group percent change in electrical energy from pre-drug control, Δ band (rabbit cortex; [5]): -34%
mean change ± S.E. in electrical energy from pre-drug control, Δ band (rabbit cortex; [5]): -114 ± 25 instrument counts
group percent change in electrical energy from pre-drug control, α band (rabbit cortex; [4]): -1%
mean change ± S.E. in electrical energy from pre-drug control, α band (rabbit cortex; [4]): -2 ± 12 instrument counts
group percent change in electrical energy from pre-drug control, α band (rabbit cortex; [5]): -32%
mean change ± S.E. in electrical energy from pre-drug control, α band (rabbit cortex; [5]): -70 ± 13 instrument counts
group percent change in electrical energy from pre-drug control, β band (rabbit cortex; [4]): -4%
mean change ± S.E. in electrical energy from pre-drug control, β band (rabbit cortex; [4]): -5 ± 7 instrument counts
group percent change in electrical energy from pre-drug control, β band (rabbit cortex; [5]): -28%
mean change ± S.E. in electrical energy from pre-drug control, β band (rabbit cortex; [5]): -47 ± 10 instrument counts
group percent change in electrical energy from pre-drug control, γ band (rabbit cortex; [4]): -5%
mean change ± S.E. in electrical energy from pre-drug control, γ band (rabbit cortex; [4]): -5 ± 2 instrument counts
group percent change in electrical energy from pre-drug control, γ band (rabbit cortex; [5]): -14%
mean change ± S.E. in electrical energy from pre-drug control, γ band (rabbit cortex; [5]): -17 ± 3 instrument counts
group percent change in electrical energy from pre-drug control, θ band (rabbit cortex; [4]): -5%
mean change ± S.E. in electrical energy from pre-drug control, θ band (rabbit cortex; [4]): -10 ± 14 instrument counts
group percent change in electrical energy from pre-drug control, θ band (rabbit cortex; [5]): -35%
mean change ± S.E. in electrical energy from pre-drug control, θ band (rabbit cortex; [5]): -86 ± 11 instrument counts
